Measurements as given in patent US4461773A, “P-Oxooxazolidinylbenzene compounds as antibacterial agents” (E. I. DuPont de Nemours and Company, priority 1984, dated 1984).
≈ marks a conversion by molar mass, not a printed value.

Legend:
[1] = tested on: S. epidermidis; assay: In vitro broth microdilution minimal inhibitory concentration, S. epidermidis (Table I); assay type: cell-based; conditions: Staphylococcus epidermidis; broth microdilution, Mueller-Hinton broth, 24 hour; read-out: MIC (minimal inhibitory concentration), S. epidermidis
Excerpt: (§1) A list is presented in Table I of analogs which exert an in-vitro antibacterial effect.

[2] = tested on: E. Coli; assay: In vitro broth microdilution minimal inhibitory concentration, E. Coli (Table I); assay type: cell-based; conditions: Escherichia coli; broth microdilution, Mueller-Hinton broth, 24 hour; read-out: MIC (minimal inhibitory concentration), E. Coli
Excerpt: as §1

[3] = tested on: Streptococci sp.; assay: In vitro antibacterial spectrum, agar dilution (Table II); assay type: cell-based; conditions: 14 isolates, 24-hour, 35° C.
Procedure: (§2) A summary of the in-vitro antibacterial spectrum of l-4-[5-(hydroxymethyl)-2-oxooxazolidin-3-yl]benzenesulfonamide, is shown in Table II. The minimal inhibitory concentrations for the aerobic and facultative anaerobic test isolates representing two gram-positive and eleven gram-negative genera were determined by an agar dilution method. The method is state of the art and is as follows. Mueller-Hinton agar plates are prepared containing two-fold compound concentrations ranging from 128 μg/ml to 1.0 μg/ml for the susceptibility testing of the bacterial strains except Neisseria gonorrhoea and Hemophilus sp. The latter organisms are tested using GC agar containing 1% Bacto-Supplement C (Difco Laboratories, Detroit, Mich.) and are incubated under 6% CO2. The agar plates are inoculated with a 0.001 ml calibrated loopful of bacterial inoculum diluted to contain 5×10^6 colony-forming units (CFU) per ml.

[4] = tested on: Salmonella sp.; assay: as above; assay type: cell-based; conditions: 6 isolates, 24-hour, 35° C.
Procedure: as §2

[5] = tested on: Proteus sp.; assay: as above; assay type: cell-based; conditions: 88 isolates, 24-hour, 35° C.
Procedure: as §2

[6] = tested on: Providencia sp.; assay: as above; assay type: cell-based; conditions: 12 isolates, 24-hour, 35° C.
Procedure: as §2

[7] = tested on: Klebsiella sp.; assay: as above; assay type: cell-based; conditions: 50 isolates, 24-hour, 35° C.
Procedure: as §2

[8] = tested on: Staphylococci sp.; assay: as above; assay type: cell-based; conditions: 38 isolates, 24-hour, 35° C.
Procedure: as §2

[9] = tested on: Shiqella sp.; assay: as above; assay type: cell-based; conditions: 24 h, read-out: MEAN MIC, Shiqella sp.
Procedure: as §2

[10] = tested on: E. Coli; assay: as above; assay type: cell-based; conditions: Escherichia coli, 86 isolates, 24-hour, 35° C.
Procedure: as §2

[11] = tested on: Haemophilus sp.; assay: as above; assay type: cell-based; conditions: 4 isolates, GC agar, 6% CO2, 24-hour, 35° C.
Procedure: as §2

[12] = tested on: Pseudomonas sp.; assay: as above; assay type: cell-based; conditions: 79 isolates, 24-hour, 35° C.
Procedure: as §2

[13] = tested on: Neisseria sp.; assay: as above; assay type: cell-based; conditions: 43 isolates, 24-hour, 35° C.
Procedure: as §2

[14] = tested on: Serratia sp.; assay: as above; assay type: cell-based; conditions: 44 isolates, 24-hour, 35° C.
Procedure: as §2

[15] = tested on: Enterobacter sp.; assay: as above; assay type: cell-based; conditions: 41 isolates, 24-hour, 35° C.
Procedure: as §2

[16] = tested on: Staphylococcus aureus; assay: In vivo efficacy in mice infected intraperitoneally with Staphylococcus aureus (Table III); conditions: 4 h, mice, intraperitoneal infection, 5% hog gastric mucin, oral dosing at infection and four hours post-infection, Reed-Muench, read-out: ED50, S. auerus
Procedure: (§3) In-vivo efficacy determinations were performed by inoculating mice interaperitoneally with cultures of the infecting organism diluted to produce 90-100% mortality in control animals within seven days. The diluents used were trypticase soy broth for E. coli, Proteus sp. and Psuedomonas aeruginosa and 5% hog gastric mucin for Staphylococcus aureus infections. The compounds, dissolved or suspended in 0.25% methocel.cndot.H2 O were administered orally by intubation at the time of infection and again at four hours post-infection. Mortality was recorded daily until test termination and the 50 percent effective dose. ED50, was calculated by the Reed-Muench method (Reed, L. G. and Muench, H., "A simple method of estimating fifty percent end points." American Journal of Hygiene, 27, 1938, 493-497).

[17] = tested on: E. coli; assay: In vivo efficacy in mice infected intraperitoneally with E. coli (Table III); conditions: Escherichia coli, 4 h; mice, intraperitoneal infection, trypticase soy broth; oral dosing at infection and four hours post-infection; Reed-Muench; read-out: ED50, E. Coli
Procedure: as §3

[18] = tested on: Clostridium sp.; assay: In vitro antibacterial spectrum, agar dilution for anaerobic bacteria (Table II); assay type: cell-based; conditions: 5 isolates
Procedure: (§4) The agar dilution method described by A. L. Barry ("The Antimicrobic Susceptibility Test: Principles and Practice", 1976, Lea and Febiger, Philadelphia, Pa.) with compound concentrations of 32 μg/ml to 0.06 μg/ml, was used to determine the inhibitory activity of l-4-[5-(hydroxymethyl)-2-oxooxazolidin-3-yl]benzenesulfonamide for anaerobic bacteria.

[19] = tested on: Gram - Anaerobic Cocci; assay: as above; assay type: cell-based; conditions: 7 isolates
Procedure: as §4

[20] = tested on: Fusobacterium sp.; assay: as above; assay type: cell-based; conditions: 4 isolates
Procedure: as §4

[21] = tested on: Bacteroides sp.; assay: as above; assay type: cell-based; conditions: 23 isolates
Procedure: as §4

NS(=O)(=O)c1ccc(N2C[C@@H](CO)OC2=O)cc1 [Example 2, l-4-[5-(Hydroxymethyl)-2-oxooxazolidin-3-yl]benzenesulfonamide]
MIC [1]: 100 µg/mL (≈ 367 µM) | MIC [2]: 50 µg/mL (≈ 184 µM) | MIC [3]: 7.7 µg/mL (≈ 28.3 µM) | MIC [4]: 32 µg/mL (≈ 118 µM) | MIC [5]: 29.1 µg/mL (≈ 107 µM) | MIC [6]: 41.3 µg/mL (≈ 152 µM) | MIC [7]: 39.4 µg/mL (≈ 145 µM) | MIC [8]: 22.3 µg/mL (≈ 81.9 µM) | MIC [9]: 8 µg/mL (≈ 29.4 µM) | MIC [10]: 29.8 µg/mL (≈ 109 µM) | MIC [11]: 32 µg/mL (≈ 118 µM) | MIC [12]: ≥ 117 µg/mL | MIC [13]: 12.3 µg/mL (≈ 45.2 µM) | MIC [14]: ≥ 96 µg/mL | MIC [15]: 58.5 µg/mL (≈ 215 µM) | ED50 [16]: 17.1 mg/kg | ED50 [17]: 13.2 mg/kg | MIC [18]: 16.8 µg/mL (≈ 61.7 µM) | MIC [19]: 6.1 µg/mL (≈ 22.4 µM) | MIC [20]: 0.9 µg/mL (≈ 3.31 µM) | MIC [21]: ≥ 15.1 µg/mL
